Test results published in patent US20190022239A1, “NOVEL BIOMOLECULE CONJUGATES AND USES THEREFOR” (The University of Western Australia, priority 2016, published 2019).
Blank lines part the entries; values can stand above or below the substance they belong to. Ends that are not written are not given here. FAM = fluorescein label (FAM, fluorescein-labelled)

Assays:
human breast carcinoma = assay: Dipping of fresh human breast carcinoma samples in FAM-labelled peptide; format: binding
Procedure: Fresh, untreated samples of human breast carcimoma were dipped, 1 hr post surgery, in 20 μM FAM-CSG for 1 hr, followed by 3×1.5 min washes with 1× PBS.
This absence of binding of PAM-ARA was confirmed using anti-fluorescein antibody (data not shown).

tumour ECM = assay: Co-localisation of CSG with ECM markers in tumour tissue sections; format: binding, mouse and human
Procedure: Following incubation of whole tissue (for mouse insulinoma and human breast cancer) or 8 μm tissue cross section, (for mouse and human HCC) with FAM-CSG peptide, tissue cross sections were co-stained with 0.3 μg in 100 μL of anti-nidogen-1 (Rat anti-monoclonal mouse nidogen-1, Millipore) or anti-collagen-1 (Rabbit polyclonal collagen 1, Abeam) markers of ECM, for 1 hr at room temperature. Stained sections were washed 3× with 1×TBS buffer. Tissue sections were re-incubated with donkey anti-Rat or Rabbit IgG (H+L) secondary antibody Alexa 594 (0.4 μg in 100 μL for 30 min. at room temperature), followed by 3×wash with 1×TBS buffer. Co-localisation of CSG with these ECM markers highlights the specificity of CSG binding to tumour ECM (FIG. 2). Co-localisation was not observed in normal healthy tissue.

fibrotic tissue = assay: Binding to liver tissue sections of mice fed choline deficient diet; parameters: species or system mice (C57BL/6 strain)
Procedure: Mice (C57BL/6 strain) were fed a choline deficient diet, for 4 weeks (early liver fibrosis), 16 weeks (advanced fibrosis-cirrhosis) or 28 weeks (advanced HCC), after which liver tissue was examined. Acetone-fixed fresh frozen 8 μm issue cross sections were incubated with either 1 μM FAM-CSG or 5 μM FAM-ARA for 30 min in 1×PBS buffer at room temperature, FAM-CSG or FAM-ARA binding were confirmed using anti-FITC-HRP antibody staining.

aorta containing plaque = assay: In vivo accumulation of FAM-CSG in aorta containing plaque; parameters: species or system mice; settings: 1 hr after i.v. injection of 100 μl 1 mM FAM-CSG
occluded arteries = assay: Dipping assay of occluded arteries from a human patient; format: binding; settings: occlusive peripheral vascular disease, after limb amputation
[1] = system: hepatocellular carcinoma or breast carcinoma; assay: FAM-CSG accumulation in tumours after tail vein injection; format: in vivo, mice; settings: 100 μL of 1 mM i.v., tissue harvested 1 hr after injection
Procedure: Fluorescein-labelled (FAM)-CSG (CSGRRSSKC; SEQ ID NO:1) (100 μL of 1 mM stock made in sterile 1× PBS) was injected into the tail vein of tumour-bearing mice (hepatocellular carcinoma or breast carcinoma, in C3H and BALB/c strains, respectively). Tissue was harvested without perfusion 1 hr after injection and peptide accumulation observed under UV illumination. […] Homing was specific to tumours, with only clearance organs (intestines, kidneys) showing limited accumulation of FAM-CSG.

[2] = system: plaques from the ApoE null mice; assay: Incubation of aorta with FAM-labelled peptide; format: binding; settings: 20 nmol/ml
Procedure: To determine whether CSG also recognises fibroatheroma, healthy aorta from wild type C57BL/6 mice and aorta from ApoE null mice were incubated with 20 nmol/ml fluorescein-labelled FAM-CSG or ARA control.

Substance: CSGRRSSKC
effect of preincubation with unlabeled peptide on FAM-CSG accumulation (human breast carcinoma; excess 1 mg unlabeled CSG): abolished the FAM-CSG specific penetration and accumulation in tumours
co-localisation with ECM markers in tumours (tumour ECM; murine insulinoma and HCC, human breast carcinoma and HCC): co-localises with two known ECM markers, collagen-1 and nidogen-1
co-localisation with ECM markers in normal healthy tissue (tumour ECM; normal healthy tissue): not observed
binding to fibrotic liver tissue (fibrotic tissue; 4, 16 or 28 weeks choline deficient diet, 1 μM FAM-CSG, 30 min): effectively binds fibrotic tissue at all stages
co-localisation of in vivo accumulation with ECM marker (aorta containing plaque): co-localises with the ECM marker laminin
binding to human occluded arteries and plaques (occluded arteries): specific binding of CSG to the occluded arteries and specific accumulation of CSG in plaques

Substance: FAM-ARA: control fluorescein-labelled (FAM)-ARA peptide, ARALPSQRSR (SEQ ID NO:5) ({FAM}-ARALPSQRSR) [reference compound]
binding to human breast carcinoma tissue (human breast carcinoma; control peptide): showed no binding to the human breast carcinoma tissue

binding to normal liver (fibrotic tissue; mice fed normal chow diet): limited binding
Substance: FAM-CSG: Fluorescein-labelled (FAM)-CSG (CSGRRSSKC; SEQ ID NO:1) ({FAM}-CSGRRSSKC; cysteine pairing not given here)
peptide accumulation in tumours under UV illumination [1]: accumulates in both tumour types
binding to human breast carcinoma tissue (human breast carcinoma; 20 μM for 1 hr): bound specifically to the tumour tissue and not to normal or marginal tissue
co-localisation with ECM marker nidogen-1 in fibrotic liver (fibrotic tissue; 1 μM, 30 min): co-localised with staining for the ECM marker nidogen-1
binding to aortic plaques [2]: specifically bound to, and accumulated in, plaques
